# Like-named read-outs stand apart in the source and are kept apart here.
# Experiments:
# human CD39 [1] = target: T1, human CD39 (Homo sapiens, UniProt P49961); set-up: Human umbilical cord membrane preparations (250 ng) natively expressing high amounts of CD39; from tissue; host or cells: human umbilical cord membranes; conditions: Figure 2, ref Crack et al., 1995, Müller et al., 2006, Lévesque et al., 2007, Baqi et al., 2009, Lecka et al., 2013, Lee et al., 2015, Kanwal et al., 2019, read-out: Ki (reported potency); cited from earlier work
# T1 sequence (P49961 1-510): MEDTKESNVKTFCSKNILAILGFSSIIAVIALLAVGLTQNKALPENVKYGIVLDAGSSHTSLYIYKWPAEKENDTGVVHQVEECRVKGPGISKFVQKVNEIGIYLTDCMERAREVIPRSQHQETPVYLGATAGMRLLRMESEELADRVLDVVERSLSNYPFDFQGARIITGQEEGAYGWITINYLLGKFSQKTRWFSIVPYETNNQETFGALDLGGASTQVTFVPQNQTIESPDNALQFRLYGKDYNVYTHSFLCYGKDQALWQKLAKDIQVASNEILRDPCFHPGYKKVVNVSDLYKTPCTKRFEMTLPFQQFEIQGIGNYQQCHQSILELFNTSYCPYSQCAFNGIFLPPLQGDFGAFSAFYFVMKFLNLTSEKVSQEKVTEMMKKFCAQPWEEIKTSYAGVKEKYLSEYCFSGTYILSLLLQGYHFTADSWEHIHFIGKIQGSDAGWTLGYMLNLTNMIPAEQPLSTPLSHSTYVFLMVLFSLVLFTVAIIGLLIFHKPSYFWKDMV
# human CD39 [2] = target: T1, human CD39; assay: Malachite green assay for CD39 (natural substrate ATP); assay type: biochemical; set-up: Human umbilical cord membrane preparations (250 ng) natively expressing high amounts of CD39; from tissue; host or cells: human umbilical cord membranes; conditions: natural substrate ATP 50 µM, n = 3, read-out: Ki ± SEM (converted)
# Experimental: (§1) They were minced and homogenized with a polytron in 95 mM NaCl, 0.1 mM phenylmethylsulfonyl fluoride (PMSF), and 45 mM Tris solution, pH 7.6. […] The pellets were resuspended in 5 mM Tris buffer solution, pH 8.0 and 10% glycerol. All purification steps were performed at 4°C. The preparations were kept at −80°C.
# The reaction buffer contained 10 mM HEPES, 2 mM CaCl2, 1 mM MgCl2, pH 7.4 in a final volume of 50 μl in transparent 96-well half area plates. For CD39 (NTPDase1), we made use of human umbilical cord membranes preparations which express high levels of the enzyme. For the other human NTPDase isoenzymes, we had to resort to recombinant expression. […] The amount of enzyme preparation was adjusted to ensure 10–20% of substrate conversion. […] The released (inorganic) phosphate was quantified after 20 min of gentle shaking at 25°C by measuring the absorption of the malachite green-phosphomolybdate complex at 600 nm using a BMG PheraStar FS plate reader (BMG Labtech GmbH, Ortenberg, Germany).
# % Inhibition=(B−T)/B*100%
# where B is the average corrected absorption of the positive control without inhibitor and T the corrected absorption in the presence of test compound.
# Full concentration-inhibition curves were determined with inhibitor concentrations ranging from 0.1 to 300 µM in the presence of 2% DMSO. Three independent experiments were performed (n = 3) and curves were calculated by the GraphPad Prism 8 software. The Ki value was calculated using the Cheng-Prusoff equation for competitive inhibitors: […]
# human CD39 [3] = target: T1, human CD39; assay: Fluorescence capillary electrophoresis assay for CD39; assay type: biochemical; set-up: Human umbilical cord membrane preparations (250 ng) natively expressing high amounts of CD39; from tissue; host or cells: human umbilical cord membranes; conditions: for Ki: fluorescent substrate PSB-017621A 0.5 µM, human umbilical cord membrane preparation, n = 3, Cheng-Prusoff, read-out: Ki ± SEM
# Experimental: as §1
# For inhibition screening, three independent experiments were performed. […] The reaction buffer contained 10 mM HEPES, 2 mM CaCl2, 1 mM MgCl2, pH 7.4. The samples were incubated at 37°C for 4 min, and the enzymatic reaction was terminated by heating at 90°C for 5 min. The solution was then diluted 1:20 with reaction buffer to perform separation of nucleotides by capillary electrophoresis (CE) followed by laser-induced fluorescence (LIF) detection. […] Three independent experiments were performed, and curves were calculated by GraphPad Prism 8 software (GraphPad software, San Diego, CA, USA).
# Analysis was carried out using a P/ACE MDQ capillary electrophoresis system (Beckman Instruments, Fullerton, CA, USA). The separation was performed in a polyacrylamide-coated capillary [30 cm (10 cm effective length) × 50 µm (id), × 360 µm (od)]. Before each run, the capillary was rinsed with the background electrolyte [50 mM phosphate buffer (pH 6.5)] for 1 min at 30 psi. Samples were electrokinetically injected by applying a voltage of -6 kV for 30 s at the capillary outlet, and the fluorescent nucleotide derivatives were separated by voltage application of -15 kV. […] Data collection and peak area analysis were performed by the P/ACE MDQ software 32 KARAT obtained from Beckman Coulter (Fullerton, CA, USA).
# rat CD39 = target: rat CD39; set-up: method as in Baqi et al., 2009; conditions: Figure 2, ref Baqi et al., 2009, read-out: Ki (reported potency); cited from earlier work
# NTPDase8 = target: T2, NTPDase8 (Homo sapiens, UniProt Q5MY95); conditions: read-out: Km (NTPDase8); substrate ATP; ref Kukulski et al., 2005; cited from earlier work
# T2 sequence (Q5MY95 1-495): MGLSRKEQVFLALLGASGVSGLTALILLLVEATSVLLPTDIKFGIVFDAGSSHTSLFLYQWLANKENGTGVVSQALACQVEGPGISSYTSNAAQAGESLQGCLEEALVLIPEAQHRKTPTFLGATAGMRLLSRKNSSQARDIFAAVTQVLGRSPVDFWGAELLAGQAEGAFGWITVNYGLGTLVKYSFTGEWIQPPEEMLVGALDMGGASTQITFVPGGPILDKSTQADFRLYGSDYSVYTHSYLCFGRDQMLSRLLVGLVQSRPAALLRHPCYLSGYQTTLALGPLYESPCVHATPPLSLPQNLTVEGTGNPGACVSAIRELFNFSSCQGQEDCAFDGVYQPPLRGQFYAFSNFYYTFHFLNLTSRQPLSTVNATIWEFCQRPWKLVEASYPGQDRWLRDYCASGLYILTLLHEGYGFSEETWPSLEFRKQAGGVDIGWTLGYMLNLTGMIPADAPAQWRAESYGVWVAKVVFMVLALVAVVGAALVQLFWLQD
# human CD39 [4] = target: T1, human CD39; conditions: read-out: Km (CD39); substrate ATP; ref Kukulski et al., 2005; cited from earlier work
# NTPDase3 = target: T3, NTPDase3 (Homo sapiens, UniProt O75355); conditions: read-out: Km (NTPDase3); substrate ATP; ref Kukulski et al., 2005; cited from earlier work
# T3 sequence (O75355 1-529): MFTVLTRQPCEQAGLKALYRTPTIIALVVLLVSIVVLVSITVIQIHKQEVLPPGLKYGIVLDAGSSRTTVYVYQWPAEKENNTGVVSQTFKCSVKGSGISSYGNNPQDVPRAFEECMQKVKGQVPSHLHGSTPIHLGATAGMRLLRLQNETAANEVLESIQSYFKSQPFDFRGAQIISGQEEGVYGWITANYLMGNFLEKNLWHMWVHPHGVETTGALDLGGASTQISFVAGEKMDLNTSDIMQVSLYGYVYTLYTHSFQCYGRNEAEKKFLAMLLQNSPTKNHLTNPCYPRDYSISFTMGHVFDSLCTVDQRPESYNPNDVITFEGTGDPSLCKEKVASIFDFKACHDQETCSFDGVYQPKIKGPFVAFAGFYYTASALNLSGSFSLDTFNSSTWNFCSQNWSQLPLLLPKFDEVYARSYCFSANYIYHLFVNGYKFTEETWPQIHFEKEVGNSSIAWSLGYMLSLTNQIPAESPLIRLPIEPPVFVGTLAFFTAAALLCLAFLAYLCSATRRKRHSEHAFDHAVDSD
# NTPDase2 = target: T4, NTPDase2 (Homo sapiens, UniProt Q9Y5L3); conditions: read-out: Km (NTPDase2); substrate ATP; ref Kukulski et al., 2005; cited from earlier work
# T4 sequence (Q9Y5L3 1-495): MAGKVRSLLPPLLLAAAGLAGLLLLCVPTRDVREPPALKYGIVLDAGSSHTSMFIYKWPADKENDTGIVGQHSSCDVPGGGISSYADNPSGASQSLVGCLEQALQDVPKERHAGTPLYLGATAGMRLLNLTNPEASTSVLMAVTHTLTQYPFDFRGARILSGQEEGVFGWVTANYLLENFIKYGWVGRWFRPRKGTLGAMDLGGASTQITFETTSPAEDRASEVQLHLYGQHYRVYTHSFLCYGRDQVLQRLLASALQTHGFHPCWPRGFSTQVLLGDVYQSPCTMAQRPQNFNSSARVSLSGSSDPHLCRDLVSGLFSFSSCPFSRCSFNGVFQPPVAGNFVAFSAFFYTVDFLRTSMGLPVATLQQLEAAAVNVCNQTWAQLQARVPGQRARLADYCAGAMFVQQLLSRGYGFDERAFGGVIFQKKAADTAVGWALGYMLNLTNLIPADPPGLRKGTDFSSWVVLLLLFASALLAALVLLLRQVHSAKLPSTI
# human CD39 [5] = target: T1, human CD39; set-up: Human umbilical cord membrane preparations (250 ng) natively expressing high amounts of CD39; from tissue; host or cells: human umbilical cord membranes; method as in Lee et al., 2018; conditions: fluorescent substrate of CD39; ref Lee et al., 2018; cited from earlier work
compound,measurement,setting,value
Oc1c(Cl)cc(Cl)cc1/C=N/CCc1c[nH]c2ccccc12 [Tryptamine derivative (V)],Ki,human CD39 [1],0.021 µM
"CCCCSc1nc2c(N(CC)CC)ncnc2n1[C@@H]1O[C@H](COP(=O)(O)OP(=O)(O)C(Br)(Br)P(=O)(O)O)[C@@H](O)[C@H]1O [Compound 37, (Dibromo((((((2R,3S,4R,5R)-5-(8-(butylthio)-6-(diethylamino)-9H-purin-9-yl)-3,4-dihydroxy-tetrahydrofuran-2-yl)methoxy)(hydroxy)phosphoryl)oxy)-(hydroxy)phosphoryl)methyl)phosphonic Acid]",Ki,human CD39 [2],5.98 µM
same,Ki,human CD39 [3],7.48 ± 1.29 µM
"Nc1c(S(=O)(=O)O)cc(Nc2ccc3ccccc3c2)c2c1C(=O)c1ccccc1C2=O [III, 1-Amino-2-sulfo-4-(2-naphthylamino)-anthraquinone]",Ki,rat CD39,0.33 µM
Nc1ncnc2c1ncn2[C@@H]1O[C@H](COP(=O)(O)OP(=O)(O)OP(=O)(O)O)[C@@H](O)[C@H]1O [ATP],Km,NTPDase8,46 µM
same,Km,human CD39 [4],17 µM
same,Km,NTPDase3,75 µM
same,Km,NTPDase2,70 µM
"O=C(NCCCCCCNc1ncnc2c1ncn2[C@@H]1O[C@H](COP(=O)(O)OP(=O)(O)OP(=O)(O)O)[C@@H](O)[C@H]1O)c1ccc2c(c1)C(=O)OC21c2ccc(O)cc2Oc2cc(O)ccc21 [PSB-017621A, N^6-[6-(Fluoresceinyl-5′-carboxamido)hexyl]-ATP]",Km,human CD39 [5],19.6 µM
"Nc1ncnc2c1ncn2[C@@H]1O[C@H](COP(=O)(O)CP(=O)(O)OP(=O)(O)O)[C@@H](O)[C@H]1O [Compound 41, α,β-Methylene-ATP, reference compound]",Ki,human CD39 [2],7.2 µM
same,Ki,human CD39 [3],0.632 ± 0.024 µM
"Nc1ncnc2c1ncn2[C@@H]1O[C@H](COP(=O)(O)OP(=O)(O)C(F)(F)P(=O)(O)O)[C@@H](O)[C@H]1O [Compound 40, (((((((2R,3S,4R,5R)-5-(6-Amino-9H-purin-9-yl)-3,4-dihydroxytetrahydrofuran-2-yl)methoxy)-(hydroxy)-phosphoryl)oxy)(hydroxy)phosphoryl)difluoromethyl)-phosphonic Acid]",Ki,human CD39 [2],4.55 µM
same,Ki,human CD39 [3],10.6 ± 0.4 µM
same,IC50 (in words),human CD39 [3]; human CD39,low micromolar range
same,fold less potent than dibromo-derivative 38 at CD39,"human CD39 [3]; ratio of Ki values, fluorescence CE assay",about 2 fold

# From paper PMC7508162 (Frontiers in Pharmacology, 2020)
